According to ChEMBL document CHEMBL1649504, “Activity of SQ641, a capuramycin analog, in a murine model of tuberculosis” (2009):
In brackets after ≈: the same amount, converted by molar mass.

Experiments:
Type in all cases: functional
[1] = system: Mycobacterium tuberculosis; assay: Antibacterial activity against Mycobacterium tuberculosis H37Rv infected in C57BL/6 mouse assessed as […] in lung at 50 mg/kg, ip administered 5 times per week measured post last dose; details: route intraperitoneal
[2] = system: Mycobacterium tuberculosis; assay: Antibacterial activity against Mycobacterium tuberculosis H37Rv infected in C57BL/6 mouse assessed as […] in lung at 5 mg/kg administered for 1 week via oral gavage measured post last dose
[3] = system: Mycobacterium tuberculosis; assay: Antibacterial activity against Mycobacterium tuberculosis H37Rv infected in C57BL/6 mouse assessed as […] in lung at 50 mg/kg, iv administered 2 times per week measured post last dose
[4] = system: Mycobacterium tuberculosis; assay: Antibacterial activity against Mycobacterium tuberculosis H37Rv infected in C57BL/6 mouse assessed as […] in lung at 25 mg/kg, iv administered 2 times per week measured post last dose
Mycobacterium avium = assay: Antimycobacterial activity against Mycobacterium avium
[5] = system: Mycobacterium tuberculosis; assay: Antimycobacterial activity against Mycobacterium tuberculosis
[6] = system: Mycobacterium tuberculosis; assay: Antibacterial activity against Mycobacterium tuberculosis H37Rv infected in C57BL/6 mouse assessed as […] in lung at 100 mg/kg, ip administered 5 times per week measured post last dose; details: route intraperitoneal

## CCCCCCCCCC(=O)O[C@@H]1[C@H](OC)[C@@H]([C@@H](CC(N)=O)O[C@H]2OC(C(=O)N[C@H]3CCC[C@@H](C)NC3=O)=C[C@@H](O)[C@H]2O)O[C@H]1n1ccc(=O)[nH]c1=O
[1]
  log10cfu: 6.7
[2]
  log10cfu: 5.1
[3]
  log10cfu: 6.01
[4]
  log10cfu: 6.1
Mycobacterium avium
  MIC: 0.016 µg/mL (≈ 0.0213 µM)
[5]
  MIC: 1 µg/mL (≈ 1.33 µM)
[6]
  log10cfu: 6.15
